According to US20210177879A1, “VITAMIN D RECEPTOR AGONIST” (Guanghzou University of Chinese Medicine, priority 2018, published 2021):

Key:
[1] = tested on: transplanted tumor of SW1990 breast cancer cells; experiment: Transplanted tumor of SW1990 breast cancer cells in nude mice; format: in vivo; details: 2 mg/kg in combination with 5-fluorouracil at half dose (20 mg/kg), once a day; effect comparable to 5-fluorouracil alone 40 mg/kg
Protocol: (§1) The SW1990 cells were thawed, and cultured in a changed medium after 24 hours. Medium preparation method: 6% serum, 1% of a bispecific antibody+a 1640 basal medium. After grown to confluent, the cells were digested and subcultured to expand the number of cells. When reached the required amount, the cells were digested by trypsin, centrifuged, and resuspended in PBS to prepare a cell suspension of 1×10^8 cells/ml. A part of the cell suspension was added with the monotropein, desacetyl asperulosidic acid, asperuloside, and asperulosidic acid respectively, and the inhibition rate (%) of tumor cell proliferation by each of these different compounds was examined.
Male adult nude mice, which had the body weights of 20-24 g, were purchased from Guangdong Medical Laboratory Animal Center. After 7 days of adaptive feeding of the animals, except for the blank group, the remaining animals were injected with 0.2 ml of a SW1990 cell suspension in PBS at ventrodorsal and scapula sites of them, the response conditions of the animals were observed, and the body weights of the animals were determined once a week. After 2 weeks of observation, the animals were grouped into the following groups according to tumor size: a blank group; a model group; a 5-fluorouracil control group (5-Full, 40 mg/kg); monotropein+5-fluorouracil (2 mg/kg monotropein+20 mg/kg 5-fluorouracil), desacetyl asperulosidic acid+5-fluorouracil (2 mg/kg desacetyl asperulosidic acid+20 mg/kg 5-fluorouracil), asperuloside+5-fluorouracil (2 mg/kg asperuloside+20 mg/kg 5-fluorouracil), asperulosidic acid+5-fluorouracil (2 mg/kg asperulosidic acid+20 mg/kg 5-fluorouracil), these groups being labeled as: Mo, As, Aa, Da. Each group included 8 animals; and administration was conducted once a day.
The status, death conditions, and eating and drinking conditions of the animals were observed daily. The body weights of the animals were determined once a week and the tumor size of the animals was determined every 4 days. The tumor volume of the animals was determined by using a vernier caliper. After 1 month of administration, the animals were sacrificed after blood was sampled from the orbit thereof, and the tumor was separated and weighed.

[2] = tested on: vitamin D receptor; experiment: Expression of vitamin D receptor in colon tissues, Experiment 2 (Western blot, immunohistochemistry); format: in vivo, Balb/c mice; details: compared with the blank group; VD3 0.2 mg/kg, four compounds 2 mg/kg
Protocol: Experimental method: 70 Balb/c mice of 6-8 weeks were purchased from the Experimental Animal Center in Guangzhou University of Chinese Medicine, weighed about 18-22 g, and subjected to adaptive feeding for 10 days. Modeling was divided into three stages. In the first stage, except for the normal group of animals being given saline injection, each of the other animals were intraperitoneally injected with a carcinogen AOM (10 mg/kg), and given free access to 2% DSS water from the next day for 7 days, and then given access to replaced regular drinking water for 14 days. In the second stage, the animals were given free access to 2% DSS water for 10 days, and then given access to replaced regular drinking water for 14 days. In the third stage, the animals were given free access to 2% DSS water for 10 days, and then given access to replaced regular drinking water for 11 days. The normal group was given access to regular drinking water throughout the experiment. The diet, water drinking and body weights of the animals were recorded daily and DAI scores were made, and the animals were killed and harvested at the 10th week. In this experiment, the animals were divided into groups and administrated on the first day of a modeling period of the second stage, where a total of 7 groups were set, each group including 10 animals. The first group was a blank control group (control) that was given access to drinking water by gavage; the second group was a model group (model), in which a total of 10 animals were given access to drinking water by gavage; the third group was a vitamin D3 positive administration control group (VD3, 0.2 mg/kg); and the fourth to seventh groups were given monotropein, desacetyl asperulosidic acid, asperuloside, and asperulosidic acid (groups labeled as: Mo, As, Aa, Da), respectively at a given dose of 2 mg/kg. Dosing was conducted once a day until the end of the experiment. At the end of the experiment, the animals were anesthetized and harvested, and the colon tissue was taken, measured with a ruler for the length, and measured with a vernier caliper for the thickness. The effects of monotropein, desacetyl asperulosidic acid, asperuloside and asperulosidic acid on expression of the vitamin D receptor were detected.

[3] = tested on: SRC; experiment: Detection of acting target of monotropein: SRC (Western blot); format: in vivo, Balb/c mice; details: colon of AOM/DSS mice
Protocol: Experimental method: 90 Balb/c mice of 6-8 weeks were purchased from the Experimental Animal Center in Guangzhou University of Chinese Medicine, weighed about 18-22 g, and subjected to adaptive feeding for 10 days. Modeling was divided into three stages. In the first stage, except for the normal group of animals being given saline injection, each of the other animals were intraperitoneally injected with a carcinogen AOM (10 mg/kg), and given free access to 2% DSS water from the next day for 7 days, and then given access to replaced regular drinking water for 14 days. In the second stage, the animals were given free access to 2% DSS water for 10 days, and then given access to replaced regular drinking water for 14 days. In the third stage, the animals were given free access to 2% DSS water for 10 days, and then given access to replaced regular drinking water for 11 days. The normal group was given access to regular drinking water throughout the experiment. The diet, water drinking and body weights of the animals were recorded daily and DAI scores were made, and the animals were killed and harvested at the 10th week. […]
A potential acting target of monotropein for interfering with the colon cancer was detected.

[4] = tested on: HT29 colon cancer cells; experiment: In vitro proliferation inhibition of HT29 colon cancer cells; format: cell-based; details: concentration of 1 uM; compared with blank control group
Protocol: as §1, with “HT29” for “SW1990”

O=C(O)C1=CO[C@@H](O[C@@H]2O[C@H](CO)[C@@H](O)[C@H](O)[C@H]2O)[C@H]2[C@@H]1C=C[C@]2(O)CO [monotropein]
tumor proliferation in SW1990 tumor-bearing mice [1]: significantly inhibit tumor proliferation
expression of the vitamin D receptor in the colon tissues (Western blot and immunohistochemistry) [2]: promote expression enhancement
effect on SRC, Western blot [3]: no significant effect
proliferation of HT29 colorectal cancer cells in vitro [4]: significantly inhibit the proliferation
